Data from ChEMBL document CHEMBL4804286, “3-amino-4-(4-(4 (dimethylcarbamoyl) phenyl)-1,4-diazepan-1-yl) thieno [2,3-b] pyridine-2-carboxamide for use in cancer therapy and formulations comprising the same” (2020).
Where “and” joins values, the source holds several entries; their conditions need not be identical. Equal values may be shown once. Calls of active or inactive are those of the source. No cut-off for these calls is given here.

Key:
[1] = biological target: Receptor tyrosine-protein kinase erbB-2 (Homo sapiens) (UniProt P04626); experiment: Inhibition of human ERBB2 assessed as percent of control at 2000 nM by KINOMEscan assay relative to control; design: scale not given: the % may be the effect or the level left
Chain of Receptor tyrosine-protein kinase erbB-2 (Homo sapiens) (P04626 whole entry): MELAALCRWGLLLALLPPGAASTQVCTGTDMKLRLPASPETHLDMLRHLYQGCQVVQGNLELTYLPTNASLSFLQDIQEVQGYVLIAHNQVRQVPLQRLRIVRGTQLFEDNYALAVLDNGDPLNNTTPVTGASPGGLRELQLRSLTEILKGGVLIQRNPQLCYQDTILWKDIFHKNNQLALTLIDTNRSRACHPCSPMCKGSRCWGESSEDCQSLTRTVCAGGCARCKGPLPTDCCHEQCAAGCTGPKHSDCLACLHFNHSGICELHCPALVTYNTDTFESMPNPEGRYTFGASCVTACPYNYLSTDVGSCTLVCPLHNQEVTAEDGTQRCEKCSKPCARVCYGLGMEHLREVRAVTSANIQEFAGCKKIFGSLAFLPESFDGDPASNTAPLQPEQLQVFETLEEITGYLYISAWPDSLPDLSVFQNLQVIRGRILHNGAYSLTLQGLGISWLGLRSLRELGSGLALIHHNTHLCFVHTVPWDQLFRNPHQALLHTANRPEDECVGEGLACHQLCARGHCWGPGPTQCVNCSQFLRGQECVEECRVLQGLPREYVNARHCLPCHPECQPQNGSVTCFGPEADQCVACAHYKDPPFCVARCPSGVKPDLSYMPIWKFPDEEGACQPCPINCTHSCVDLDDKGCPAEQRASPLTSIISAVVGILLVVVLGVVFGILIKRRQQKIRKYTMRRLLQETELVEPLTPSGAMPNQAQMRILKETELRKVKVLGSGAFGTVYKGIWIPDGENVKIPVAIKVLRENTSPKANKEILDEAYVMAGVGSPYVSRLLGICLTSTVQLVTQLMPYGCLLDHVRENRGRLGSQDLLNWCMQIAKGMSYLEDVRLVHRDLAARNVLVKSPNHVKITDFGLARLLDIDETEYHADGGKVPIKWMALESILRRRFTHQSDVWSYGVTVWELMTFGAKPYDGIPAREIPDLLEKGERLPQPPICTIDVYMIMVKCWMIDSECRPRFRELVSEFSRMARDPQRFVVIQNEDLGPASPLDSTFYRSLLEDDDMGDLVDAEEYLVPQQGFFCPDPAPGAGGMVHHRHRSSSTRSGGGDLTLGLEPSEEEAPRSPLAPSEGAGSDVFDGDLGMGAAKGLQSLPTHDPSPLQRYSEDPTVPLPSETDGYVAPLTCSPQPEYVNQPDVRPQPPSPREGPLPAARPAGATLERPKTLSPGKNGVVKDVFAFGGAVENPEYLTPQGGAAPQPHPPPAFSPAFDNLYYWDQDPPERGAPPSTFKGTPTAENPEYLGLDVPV

[2] = biological target: Serine/threonine-protein kinase MAK (Homo sapiens) (UniProt P20794); experiment: Inhibition of human MAK assessed as percent of control at 2000 nM by KINOMEscan assay relative to control; design: scale not given: the % may be the effect or the level left
[3] = biological target: Mitogen-activated protein kinase 10 (Homo sapiens) (UniProt P53779); experiment: Inhibition of human JNK3 assessed as percent of control at 2000 nM by KINOMEscan assay relative to control; design: scale not given: the % may be the effect or the level left
Chain of Mitogen-activated protein kinase 10 (Homo sapiens) (P53779 whole entry): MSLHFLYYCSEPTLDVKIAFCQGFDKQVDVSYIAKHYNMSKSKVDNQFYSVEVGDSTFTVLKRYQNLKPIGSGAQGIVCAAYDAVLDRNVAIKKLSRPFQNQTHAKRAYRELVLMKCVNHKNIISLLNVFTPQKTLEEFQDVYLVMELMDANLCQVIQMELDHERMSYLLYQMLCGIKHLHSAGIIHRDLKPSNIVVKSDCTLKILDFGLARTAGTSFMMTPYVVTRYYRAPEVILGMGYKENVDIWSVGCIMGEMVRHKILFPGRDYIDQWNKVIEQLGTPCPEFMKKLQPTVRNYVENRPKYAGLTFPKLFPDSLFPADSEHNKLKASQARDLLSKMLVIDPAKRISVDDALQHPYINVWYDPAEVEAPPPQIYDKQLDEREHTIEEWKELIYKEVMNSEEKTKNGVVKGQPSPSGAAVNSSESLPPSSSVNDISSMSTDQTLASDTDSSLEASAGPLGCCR

[4] = biological target: Serine/threonine-protein kinase SIK2 (Homo sapiens) (UniProt Q9H0K1); experiment: Inhibition of human SIK2 assessed as percent of control at 2000 nM by KINOMEscan assay relative to control; design: scale not given: the % may be the effect or the level left
Chain of Serine/threonine-protein kinase SIK2 (Homo sapiens) (Q9H0K1 whole entry, looked up, canonical isoform): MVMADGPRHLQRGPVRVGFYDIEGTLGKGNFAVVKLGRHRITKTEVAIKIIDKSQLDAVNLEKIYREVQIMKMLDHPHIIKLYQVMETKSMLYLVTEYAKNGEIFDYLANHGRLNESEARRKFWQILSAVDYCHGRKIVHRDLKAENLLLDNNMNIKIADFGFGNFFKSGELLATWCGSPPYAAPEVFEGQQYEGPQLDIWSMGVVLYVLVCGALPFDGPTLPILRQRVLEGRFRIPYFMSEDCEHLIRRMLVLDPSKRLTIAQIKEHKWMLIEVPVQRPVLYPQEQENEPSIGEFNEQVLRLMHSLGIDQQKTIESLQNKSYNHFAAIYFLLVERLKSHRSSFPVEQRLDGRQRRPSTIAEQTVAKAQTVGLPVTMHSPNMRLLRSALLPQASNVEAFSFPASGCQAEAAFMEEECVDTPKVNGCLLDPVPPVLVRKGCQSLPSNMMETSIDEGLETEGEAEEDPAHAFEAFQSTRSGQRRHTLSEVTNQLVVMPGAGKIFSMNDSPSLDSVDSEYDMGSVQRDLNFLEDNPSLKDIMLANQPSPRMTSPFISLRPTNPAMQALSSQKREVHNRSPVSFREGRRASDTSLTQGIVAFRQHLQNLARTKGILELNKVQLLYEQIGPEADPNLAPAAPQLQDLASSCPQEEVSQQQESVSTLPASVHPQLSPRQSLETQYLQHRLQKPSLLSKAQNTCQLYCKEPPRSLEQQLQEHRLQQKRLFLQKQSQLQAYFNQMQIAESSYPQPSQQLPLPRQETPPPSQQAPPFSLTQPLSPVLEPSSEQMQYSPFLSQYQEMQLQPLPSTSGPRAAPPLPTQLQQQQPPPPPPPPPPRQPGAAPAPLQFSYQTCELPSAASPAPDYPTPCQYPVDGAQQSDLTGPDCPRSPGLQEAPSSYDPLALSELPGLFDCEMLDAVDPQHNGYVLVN

[5] = biological target: Phosphatidylinositol 4,5-bisphosphate 3-kinase catalytic subunit delta isoform (Homo sapiens) (UniProt O00329); experiment: Inhibition of human PIK3CD assessed as percent of control at 2000 nM by KINOMEscan assay relative to control; design: scale not given: the % may be the effect or the level left
[6] = test system: Myc-CaP; experiment: Antitumor activity against murine castration-resistant Myc-CaP cells xenografted in male FVB mouse assessed as suppression of tumor volume; format: functional
[7] = biological target: Ephrin type-B receptor 2 (Homo sapiens) (UniProt P29323); experiment: Inhibition of human EPHB2 assessed as percent of control at 2000 nM by KINOMEscan assay relative to control; design: scale not given: the % may be the effect or the level left
[8] = biological target: Phosphatidylinositol 4-phosphate 5-kinase type-1 gamma (Homo sapiens) (UniProt O60331); experiment: Inhibition of human PIP5K1C assessed as percent of control at 2000 nM by KINOMEscan assay relative to control; design: scale not given: the % may be the effect or the level left
[9] = biological target: Ribosomal protein S6 kinase alpha-6 (Homo sapiens) (UniProt Q9UK32); experiment: Inhibition of human C-terminal RSK4 kinase domain 2 assessed as percent of control at 2000 nM by KINOMEscan assay relative to control; design: scale not given: the % may be the effect or the level left
[10] = biological target: Ephrin type-B receptor 1 (Homo sapiens) (UniProt P54762); experiment: Inhibition of human EPHB1 assessed as percent of control at 2000 nM by KINOMEscan assay relative to control; design: scale not given: the % may be the effect or the level left
Chain of Ephrin type-B receptor 1 (Homo sapiens) (P54762 whole entry): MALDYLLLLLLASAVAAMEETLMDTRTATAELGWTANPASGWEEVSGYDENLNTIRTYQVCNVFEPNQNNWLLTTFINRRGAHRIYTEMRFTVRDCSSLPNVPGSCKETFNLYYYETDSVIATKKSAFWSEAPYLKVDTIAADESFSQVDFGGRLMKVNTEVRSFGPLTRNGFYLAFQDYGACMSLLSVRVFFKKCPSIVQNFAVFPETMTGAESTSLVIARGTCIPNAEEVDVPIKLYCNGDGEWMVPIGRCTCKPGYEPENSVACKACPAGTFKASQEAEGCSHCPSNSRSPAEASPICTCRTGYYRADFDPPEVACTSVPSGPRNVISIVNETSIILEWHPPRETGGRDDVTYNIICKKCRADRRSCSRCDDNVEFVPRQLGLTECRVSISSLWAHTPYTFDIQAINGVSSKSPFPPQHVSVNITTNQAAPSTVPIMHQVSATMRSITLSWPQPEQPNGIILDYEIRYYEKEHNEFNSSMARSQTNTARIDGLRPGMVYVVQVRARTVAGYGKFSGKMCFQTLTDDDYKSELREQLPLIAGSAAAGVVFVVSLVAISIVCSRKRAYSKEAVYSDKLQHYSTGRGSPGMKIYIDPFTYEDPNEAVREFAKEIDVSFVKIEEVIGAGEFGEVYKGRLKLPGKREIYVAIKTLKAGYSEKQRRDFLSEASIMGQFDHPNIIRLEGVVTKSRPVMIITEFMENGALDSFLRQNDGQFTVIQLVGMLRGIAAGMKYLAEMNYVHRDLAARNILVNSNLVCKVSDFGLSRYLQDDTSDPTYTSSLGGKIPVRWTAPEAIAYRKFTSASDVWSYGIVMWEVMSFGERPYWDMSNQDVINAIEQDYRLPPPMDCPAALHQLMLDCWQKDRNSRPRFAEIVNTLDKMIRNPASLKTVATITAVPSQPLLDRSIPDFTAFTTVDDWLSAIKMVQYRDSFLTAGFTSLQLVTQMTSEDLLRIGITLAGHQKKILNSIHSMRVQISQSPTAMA

[11] = biological target: Serine/threonine-protein kinase Chk2 (Homo sapiens) (UniProt O96017); experiment: Inhibition of human CHEK2 assessed as percent of control at 2000 nM by KINOMEscan assay relative to control; design: scale not given: the % may be the effect or the level left
Chain of Serine/threonine-protein kinase Chk2 (Homo sapiens) (O96017 whole entry): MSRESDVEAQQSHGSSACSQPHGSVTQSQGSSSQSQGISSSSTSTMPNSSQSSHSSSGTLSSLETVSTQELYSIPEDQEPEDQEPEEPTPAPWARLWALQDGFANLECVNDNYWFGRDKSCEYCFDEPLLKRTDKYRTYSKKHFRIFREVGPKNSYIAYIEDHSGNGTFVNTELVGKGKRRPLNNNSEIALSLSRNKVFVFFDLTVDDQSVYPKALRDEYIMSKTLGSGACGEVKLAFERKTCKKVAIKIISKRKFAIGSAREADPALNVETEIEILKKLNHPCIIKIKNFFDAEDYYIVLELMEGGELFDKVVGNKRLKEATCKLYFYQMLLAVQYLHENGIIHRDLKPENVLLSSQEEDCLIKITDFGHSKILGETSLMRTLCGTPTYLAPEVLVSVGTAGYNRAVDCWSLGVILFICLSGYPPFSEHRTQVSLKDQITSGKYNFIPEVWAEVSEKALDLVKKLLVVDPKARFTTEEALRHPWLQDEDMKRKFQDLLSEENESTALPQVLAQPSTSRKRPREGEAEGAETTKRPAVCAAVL

[12] = biological target: Serine/threonine-protein kinase PLK3 (Homo sapiens) (UniProt Q9H4B4); experiment: Inhibition of human PLK3 assessed as percent of control at 2000 nM by KINOMEscan assay relative to control; design: scale not given: the % may be the effect or the level left
Chain of Serine/threonine-protein kinase PLK3 (Homo sapiens) (Q9H4B4 whole entry, looked up): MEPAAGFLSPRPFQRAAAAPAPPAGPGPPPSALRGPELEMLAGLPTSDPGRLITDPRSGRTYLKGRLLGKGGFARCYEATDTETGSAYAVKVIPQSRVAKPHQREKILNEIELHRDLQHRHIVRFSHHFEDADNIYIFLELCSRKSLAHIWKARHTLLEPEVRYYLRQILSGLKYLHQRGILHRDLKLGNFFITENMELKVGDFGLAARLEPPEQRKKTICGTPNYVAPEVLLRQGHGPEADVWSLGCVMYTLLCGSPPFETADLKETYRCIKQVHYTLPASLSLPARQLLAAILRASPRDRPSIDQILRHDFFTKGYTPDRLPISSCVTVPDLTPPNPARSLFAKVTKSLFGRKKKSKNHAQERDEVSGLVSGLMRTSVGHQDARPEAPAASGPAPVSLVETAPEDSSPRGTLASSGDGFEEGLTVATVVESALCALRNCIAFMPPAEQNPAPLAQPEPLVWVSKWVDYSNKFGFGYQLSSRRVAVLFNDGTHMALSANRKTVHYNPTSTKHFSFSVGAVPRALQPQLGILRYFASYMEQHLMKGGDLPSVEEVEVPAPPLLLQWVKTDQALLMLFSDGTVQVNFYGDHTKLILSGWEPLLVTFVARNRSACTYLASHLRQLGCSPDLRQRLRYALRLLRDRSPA

[13] = biological target: Aurora kinase A (Homo sapiens) (UniProt O14965); experiment: Inhibition of human AURKA assessed as percent of control at 2000 nM by KINOMEscan assay relative to control; design: scale not given: the % may be the effect or the level left
[14] = biological target: Serine/threonine-protein kinase WNK3 (Homo sapiens) (UniProt Q9BYP7); experiment: Inhibition of human WNK3 assessed as percent of control at 2000 nM by KINOMEscan assay relative to control; design: scale not given: the % may be the effect or the level left
[15] = biological target: Mitogen-activated protein kinase kinase kinase kinase 1 (Homo sapiens) (UniProt Q92918); experiment: Inhibition of human HPK1 assessed as percent of control at 2000 nM by KINOMEscan assay relative to control; design: scale not given: the % may be the effect or the level left
[16] = biological target: Serine/threonine-protein kinase 24 (Homo sapiens) (UniProt Q9Y6E0); experiment: Inhibition of human MST3 assessed as percent of control at 2000 nM by KINOMEscan assay relative to control; design: scale not given: the % may be the effect or the level left
[17] = biological target: Homeodomain-interacting protein kinase 2 (Homo sapiens) (UniProt Q9H2X6); experiment: Inhibition of human HIPK2 assessed as percent of control at 2000 nM by KINOMEscan assay relative to control; design: scale not given: the % may be the effect or the level left
[18] = biological target: Mitogen-activated protein kinase kinase kinase 5 (Homo sapiens) (UniProt Q99683); experiment: Inhibition of human ASK1 assessed as percent of control at 2000 nM by KINOMEscan assay relative to control; design: scale not given: the % may be the effect or the level left
[19] = biological target: STE20/SPS1-related proline-alanine-rich protein kinase (Homo sapiens) (UniProt Q9UEW8); experiment: Inhibition of human STK39 assessed as percent of control at 2000 nM by KINOMEscan assay relative to control; design: scale not given: the % may be the effect or the level left
[20] = biological target: CDK4/Cyclin D3 (Homo sapiens) (UniProt P11802+P30281); experiment: Inhibition of human CDK4/cyclin D3 assessed as percent of control at 2000 nM by KINOMEscan assay relative to control; format: protein-complex assay; design: scale not given: the % may be the effect or the level left
[21] = test system: Myc-CaP; experiment: Antiproliferative activity against murine castration-resistant Myc-CaP cells at 1 uM assessed as growth inhibition relative to control; format: functional; settings: Mus musculus
[22] = biological target: Serine/threonine-protein kinase Sgk3 (Homo sapiens) (UniProt Q96BR1); experiment: Inhibition of human SGK3 assessed as percent of control at 2000 nM by KINOMEscan assay relative to control; design: scale not given: the % may be the effect or the level left
[23] = biological target: Cyclin-dependent kinase-like 5 (Homo sapiens) (UniProt O76039); experiment: Inhibition of human CDKL5 assessed as percent of control at 2000 nM by KINOMEscan assay relative to control; design: scale not given: the % may be the effect or the level left
[24] = biological target: Proto-oncogene tyrosine-protein kinase Src (Homo sapiens) (UniProt P12931); experiment: Inhibition of human SRC assessed as percent of control at 2000 nM by KINOMEscan assay relative to control; design: scale not given: the % may be the effect or the level left
[25] = test system: Tyrosine-protein kinase ABL1 (Homo sapiens), P00519 [Q252H]; experiment: Inhibition of non-phosphorylated human ABL1 Q252H mutant assessed as percent of control at 2000 nM by KINOMEscan assay relative to control; design: scale not given: the % may be the effect or the level left
[26] = biological target: Dual specificity testis-specific protein kinase 1 (Homo sapiens) (UniProt Q15569); experiment: Inhibition of human TESK1 assessed as percent of control at 2000 nM by KINOMEscan assay relative to control; design: scale not given: the % may be the effect or the level left
[27] = biological target: Ephrin type-A receptor 7 (Homo sapiens) (UniProt Q15375); experiment: Inhibition of human EPHA7 assessed as percent of control at 2000 nM by KINOMEscan assay relative to control; design: scale not given: the % may be the effect or the level left
[28] = test system: Tyrosine-protein kinase ABL1 (Homo sapiens), P00519 [UNDEFINED MUTATION]; experiment: Inhibition of phosphorylated human ABL1 […] mutant assessed as percent of control at 2000 nM by KINOMEscan assay relative to control; design: scale not given: the % may be the effect or the level left
[29] = biological target: Protein kinase C epsilon type (Homo sapiens) (UniProt Q02156); experiment: Inhibition of human PRKCE assessed as percent of control at 2000 nM by KINOMEscan assay relative to control; design: scale not given: the % may be the effect or the level left
[30] = biological target: Receptor-interacting serine/threonine-protein kinase 2 (Homo sapiens) (UniProt O43353); experiment: Inhibition of human RIPK2 assessed as percent of control at 2000 nM by KINOMEscan assay relative to control; design: scale not given: the % may be the effect or the level left
[31] = biological target: Rhodopsin kinase GRK7 (Homo sapiens) (UniProt Q8WTQ7); experiment: Inhibition of human GRK7 assessed as percent of control at 2000 nM by KINOMEscan assay relative to control; design: scale not given: the % may be the effect or the level left

**Q.** How did the Activity [1] turn out when `CN(C)C(=O)c1ccc(N2CCCN(c3ccnc4sc(C(N)=O)c(N)c34)CC2)cc1` was run?
**A.** 100% and 89%

**Q.** What about the Activity [2] of the same compound?
**A.** 100% and 91%

**Q.** And the Activity [3]?
**A.** 91%

**Q.** And the Activity ([3]; INHIBITOR)?
**A.** 44%

**Q.** And the Activity [4]?
**A.** 96% and 100%

**Q.** What about the Activity [5] of the same compound?
**A.** 94% and 71%

**Q.** And the Activity [6]?
**A.** Active

**Q.** And the Activity [7]?
**A.** 99% and 95%

**Q.** And the Activity [8]?
**A.** 64%

**Q.** And the Activity ([8]; INHIBITOR)?
**A.** 25%

**Q.** And the Activity [9]?
**A.** 94% and 79%

**Q.** What about the Activity [10] of the same compound?
**A.** 88%

**Q.** What about the Activity [11] of the same compound?
**A.** 92%

**Q.** What about the Activity [12] of the same compound?
**A.** 86% and 90%

**Q.** What about the Activity [13] of the same compound?
**A.** 98% and 99%

**Q.** And the Activity [14]?
**A.** 97% and 100%

**Q.** What about the Activity [15] of the same compound?
**A.** 98% and 100%

**Q.** What about the Activity [16] of the same compound?
**A.** 97% and 84%

**Q.** What about the Activity [17] of the same compound?
**A.** 100% and 81%

**Q.** What about the Activity [18] of the same compound?
**A.** 100%

**Q.** And the Activity [19]?
**A.** 93% and 94%

**Q.** And the Activity [20]?
**A.** 95% and 97%

**Q.** And the Activity [21]?
**A.** Active

**Q.** And the Activity [22]?
**A.** 79% and 80%

**Q.** What about the Activity [23] of the same compound?
**A.** 100% and 84%

**Q.** What about the Activity [24] of the same compound?
**A.** 100% and 96%

**Q.** What about the Activity [25] of the same compound?
**A.** 94% and 75%

**Q.** And the Activity [26]?
**A.** 83% and 100%

**Q.** And the Activity [27]?
**A.** 92% and 81%

**Q.** And the Activity [28]?
**A.** 94% and 77%

**Q.** What about the Activity [29] of the same compound?
**A.** 93% and 97%

**Q.** What about the Activity [30] of the same compound?
**A.** 100% and 93%

**Q.** What about the Activity [31] of the same compound?
**A.** 100% and 92%
